Results from patent publication US20240299595A1, “CANCER THERANOSTIC COMPOSITIONS COMPRISING BIGUANIDE COMPLEXES OF GROUP 7 TRANSITION METALS AND USES THEREOF” (BOARD OF REGENTS, THE UNIVERSITY OF TEXAS SYSTEM, priority 2021, published 2024).

Legend:
A2789-cp20 = assay: MTT cytotoxicity, ovarian cancer cell line A2789-cp20; type: cell-based; conditions: 72 hours
Method: (§1) Finally, a comparison study of the cytotoxicity of Re-Phen and phenformin in a panel of ovarian cancer cell lines by MTT assay after a 72 hour incubation period was conducted. Ovarian cells were seeded at 5000 cells/well in 96-well plates overnight, and treated with Re-Phen or phenformin in different concentrations (from 4.57×10^−4 mM to 1.0 mM in 3-fold increase) at 37° C. for 72 hours. Cell viability was measured using the MTT assay. The absorption at 590 nm was measured at microplate reader (SpectraMax, Molecular Device, San Diego, CA) to quantify cell numbers. The proportion of cells was normalized to that of untreated cells and expressed as mean±standard error of the mean (SEM) (n=5-6). The resulting reduced viability with half-maximal inhibitory concentration (IC50) values of mM were calculated by a sigmoidal dose-response (variable slope) curve-fitting using GraphPad Prism software. The data are shown in FIG. 19A (Re-Phen) and FIG. 19B (phenformin). […] In fact, Re-Phen is shown to display >2,000-fold and >5,000-fold higher cytotoxicity against OVACAR-8 and SKOV3 (Table 2) human ovarian cancer cell lines, respectively.

[1] = tested on: orthotopic Kras* murine PDAC tumor; assay: Antitumor efficacy, syngeneic Kras* orthotopic PDAC model; type: in vivo, C57BL/6 mice; conditions: 10 daily intraperitoneal injections, 50 mg/kg/injection
Method: FIG. 6A outlines an in vivo experiment assessing antitumor activity of Re-Phen against orthotopic Kras* murine PDAC tumor. Male C57BL/6 mice were inoculated in the pancreas with iKrasG12D murine tumor cells. Treatments were initiated on day 7 after tumor cells inoculation. Each mouse received 10 daily intraperitoneal injections of phenformin or Re-Phen at a dose of 50 mg/kg/injection (100 μL/mouse). Control mice received 50/50 (v/v) Cremorphor EL/absolute ethanol, further diluted at 1:4 (v/v) ratio with saline (100 μL/mouse) before injection.
For antitumor efficacy study, the syngeneic Kras* orthotopic PDAC model was used. Kras* PDAC cells established from transgenic mouse model of PDAC with inducible KrasG12D mutation were inoculated into the pancreas of 6-week-old female C57BL/6 mice (Taconic Biosciences, Rensselaer, NY). Treatments were initiated on day 7 after tumor cells inoculation when tumors were ˜5 mm in diameter. Each mouse received 10 daily intraperitoneal injections of phenformin or Re-Phen at a dose of 50 mg/kg/injection (100 μL/mouse) (FIG. 6A). Each drug was formulated in 50/50 (v/v) Cremorphor EL/absolute ethanol, which that was further diluted at 1:4 (v/v) ratio with saline before injection. Animals were weighted daily to record possible adverse effects. Animals were euthanized on day 16 after the last injection. Tumors were harvested and weighted, fixed in formalin, embedded in paraffin, and cut into 4-μm sections. Slides were immunohistochemically stained with the proliferation marker Ki67, counterstained with hematoxylin and visualized under a brightfield microscope at 100× or 200× magnification.

[2] = log P from octanol and PBS pH 7.4; type: physicochemical
BXPC-3 = assay: MTT cytotoxicity, pancreatic cancer cell line BXPC-3; type: cell-based
Method: To determine cytotoxicity of Re-Phen and Phenformin, different cell lines were exposed to different concentrations of the compounds and their viabilities were followed over time. Pancreatic cells were seeded in 96-well plates (5000 cells/well) overnight, and treated with Re-Phen (FIG. 13A) or phenformin (FIG. 13B) in concentrations ranging from 4.57×10−4 mM to 1.0 mM at 37° C. for 72 h. Cell viability was measured using the MTT assay. The absorption at 590 nm was measured with a microplate reader (SpectraMax, Molecular Device, San Diego, CA) to quantify cell numbers. The proportion of cells was normalized to that of untreated cells and expressed as mean±standard error of the mean (SEM) (n=6). The half-maximal inhibitory concentration (IC50) values were calculated by a sigmoidal dose-response (variable slope) curve-fitting using GraphPad Prism software.

PDAC cells [3] = assay: Seahorse mito-stress test (oxygen consumption rate); type: cell-based; conditions: 4-hour treatments, Seahorse XF24e
PDAC cells [4] = assay: DCFDA cellular ROS detection assay; type: cell-based; conditions: for level of reactive oxygen species (ROS): DCFDA assay, FIG. 9B
Method: Decreased fluorescence intensity measured at Ex/Em 485/535 nm indicated decreased level of ROS. Data are expressed as mean±SD (n=4). ***p<0.001 compared to vehicle (DMSO) control.
The production of intracellular reactive oxygen species (ROS) after treatments with Re-Phen and phenformin in PDAC cells was also measured (FIG. 16). DCFDA Cellular ROS Detection AssayKit (Abcam, Cambridge, MA) was used to measure Intracellular reactive oxygen species (ROS). Briefly, after seeded into 96-well plates at a cell density of 2.5×10^4 cells per well overnight, cell monolayers were washed and incubated for 45 min at 37° C. in the dark in the presence of 25 μM DCFDA diluted in serum-free adhesion medium without phenol red according to the manufacturer's instructions. Cells were then treated with compounds as indicated for 1 hour. End-point fluorescence was measured in a fluorescence microplate reader (Syneregy H1, Bio-Tek, Winooski, VT) at 485 nm excitation and 535 nm emission wavelengths.

PDAC cells [5] = assay: Glycolytic ratio, YSI metabolic analyzer; type: cell-based; conditions: 30 μM, 24 hours
Method: The glycolytic ratio was obtained using a YSI metabolic analyzer after treatments with phenformin (30 μM) or Re-Phen (30 μM) for 24 hours. Wells with culture media but without cells were used for baseline reading. Data are presented as mean±SD (n=3). *p<0.05; **p<0.01.
Both Re-Phen and phenformin altered the mitochondrial functions and metabolic state of PDAC cells. The fluorescent intensities for both monomeric forms (Ex/Em=490/525 nm) and J-aggregates (Ex/Em=540/590 nm) of JC-10 change upon mitochondrial membrane polarization. Thus, an increase in the ratio of fluorescence intensities measured at 525 nm (monomeric form) over 590 nm (aggregates) represents a decrease in mitochondrial membrane potential.

SKOV3 = assay: MTT cytotoxicity, ovarian cancer cell line SKOV3; type: cell-based, human
Method: as §1

[6] = tested on: PDAC cells (Kras*, MiaPaca-2); assay: Annexin V/PI flow cytometry cell death; type: cell-based; conditions: 250 μM, 24 hours, Kras* and MiaPaca-2 cell lines
From the text: Vehicle (DMSO) treated cells were used as a control.
AMPK is a key enzyme that becomes activated under nutrient stress. Annexin V/PI double staining kit was used to detected cell death in flow cytofluorimetric analyses. […] In Kras* cell line, cells died largely of necrosis; in MiaPaca-2 cell line, cells died mostly of apoptosis.

OVCAR8 = assay: MTT cytotoxicity, ovarian cancer cell line OVCAR8; type: cell-based, human
Method: as §1

[7] = Re-Phen versus phenformin, Table 2

SMILES | IC50 (A2789-cp20) [µM] | Ki67+ proliferating cells in tumors (IHC) compared to vehicle [1] | change in body weight [1] | logP ([2]; pH 7.4) | IC50 (BXPC-3; Homo sapiens, BXPC-3, 72 h) [µM] | mitochondria respiration (OCR) (PDAC cells [3]) | level of reactive oxygen species (ROS) (PDAC cells [4]) | compensatory glycolysis (glycolytic ratio, lactate produced to glucose consumed) (PDAC cells [5]) | IC50 (SKOV3; MTT, 72 hours) [µM] | fold higher cytotoxicity against SKOV3 (SKOV3; [7]) | tumor size compared to vehicle control [1] | log P ([2]; octanol and phosphate-buffered saline (PBS) at pH 7.4) | induction of cell death [6] | IC50 (BXPC-3; 72 h) [µM] | IC50 (OVCAR8; MTT, 72 hours) [µM] | fold higher cytotoxicity against OVACAR-8 (OVCAR8; [7]) | ROS levels in MiaPaca-2 cells (PDAC cells [4]; MiaPaca-2 cells, DCFDA, treated 1 hour, FIG. 16)
[H]/N=C(/N)N/C(=N/[H])NCCc1ccccc1 [Phenformin, N-phenylethyl biguanide, reference compound] | 100 | markedly reduced Ki67+ proliferating cells | No significant change in body weight | -0.72 ± 0.02 | 1100 | suppressed mitochondria respiration | increased the level of ROS | increased compensatory glycolysis |  |  |  |  |  |  |  |  | 
N=C(N)NC(=N)NCCc1ccccc1.[C-]#[O+].[C-]#[O+].[C-]#[O+].[Re+] [Re-Phen] | 260 | markedly reduced Ki67+ proliferating cells | No significant change in body weight |  |  | suppressed mitochondria respiration | reduced the level of reactive oxygen species (ROS) | increased compensatory glycolysis | 35 | > 5,000 fold | significantly reduced tumor size | 1.07±0.08 | more potent than phenformin | 340 | 110 | > 2,000 fold | reduced ROS levels
